# Structures can show the parent of a compound that is named as a salt.
# Biological target: T1, AKT1 (Homo sapiens, UniProt P31749)
# T1 construct: Full-length non-phosphorylated AKT1 is diluted in assay buffer
# Experiment: AKT1 Alpha Screen Assay
# Type: biochemical
# Details: full-length non-phosphorylated AKT1 8 nM, activated by PDK1 and MAPKAPK2, lipid vesicles, 50 μM ATP; biotinylated crosstide substrate; AlphaScreen
# Description: AKT1 activity is assayed using the GSK3-derived biotinylated peptide substrate, crosstide (biotin-[…]), and AlphaScreen™ (Amplified Luminescent Proximity Homogeneous Assay) technology. AKT1 activation is achieved by the addition of the activating kinases PDK1 and MAPKAPK2, lipid vesicles, and ATP. The extent of peptide phosphorylation is determined using a phospho-AKT substrate antibody and acceptor beads conjugated to Protein A and donor beads conjugated to streptavidin that will bind to the biotin on the peptide. Excitation of the donor beads converts ambient oxygen to excited singlet oxygen which, when in close proximity to acceptor beads, reacts with acceptor beads resulting in signal amplification.
# Test inhibitors and controls are prepared in 10% DMSO at 10-fold the desired final concentration, and added to each well of a reaction plate (Corning 96-well half-area solid white nonbinding surface plate) in a volume of 2.5 μL. Full-length non-phosphorylated AKT1 is diluted in assay buffer (50 mM Tris, pH 8.0, 0.02 mg/mL BSA, 10 mM MgCl2, 1 mM EGTA, 10% glycerol, 0.2 mM Na3VO4, 1 mM DTT, 0.1 mM β-glycerophosphate, and 0.2 mM NaF) and added to each well in a volume of 17.5 μL for a final concentration in the 25 μL reaction of 8 nM (Akt1). […] Assay plates are incubated for 90 minutes at room temperature in the dark, and the plates are read on a Perkin Elmer Envision Multilabel plate reader (excitation wavelength: […], emission wavelength: 570 nm).
# Reaction conditions: 2.5 μL 10× Akt inhibitor in 10% DMSO; 17.5 μL non-phosphorylated Akt or buffer for blank; 20 minute pre-incubation at room temperature; 5 μL Reaction Mix (5×ATP, 5×substrate, 5×PDK1, 5×MK2, and 5× lipid vesicle mixture); 30 minute incubation at room temperature; 10 μL Detection Buffer; 90 minute incubation at room temperature and Detection (excitation: 640 nm, emission: 570 nm).
# T1 sequence (P31749 whole entry): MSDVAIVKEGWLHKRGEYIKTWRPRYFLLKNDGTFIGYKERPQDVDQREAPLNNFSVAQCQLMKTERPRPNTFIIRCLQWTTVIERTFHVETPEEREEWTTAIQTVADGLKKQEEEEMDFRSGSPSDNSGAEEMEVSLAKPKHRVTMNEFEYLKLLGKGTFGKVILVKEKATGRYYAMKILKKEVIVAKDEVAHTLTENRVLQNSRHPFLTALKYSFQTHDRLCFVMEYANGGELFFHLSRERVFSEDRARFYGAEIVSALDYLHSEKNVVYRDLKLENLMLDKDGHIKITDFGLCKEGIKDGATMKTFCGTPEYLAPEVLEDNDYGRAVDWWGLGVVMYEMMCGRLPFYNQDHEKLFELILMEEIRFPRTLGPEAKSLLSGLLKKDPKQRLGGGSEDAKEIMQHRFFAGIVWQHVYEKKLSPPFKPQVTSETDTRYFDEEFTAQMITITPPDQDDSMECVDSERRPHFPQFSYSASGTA
row,Compound,IC50 [µM]
1,NC1(c2ccc(-c3c(-c4ccoc4)nc4n3-c3cccnc3Nc3ccccc3-4)cc2)CCC1 [Example 9],0.028
2,NC1(c2ccc(-c3c(-c4cnccn4)nc4n3-c3cccnc3Nc3ccccc3-4)cc2)CCC1 [Example 15],0.014
3,"Nc1ncc(-c2nc3n(c2-c2ccc(C4(N)CCC4)cc2)-c2cccnc2Nc2ccccc2-3)cn1 [Example 31, trihydrochloride]",0.003
4,COc1ncc(-c2nc3n(c2-c2ccc(C4(N)CCC4)cc2)-c2cccnc2Nc2ccccc2-3)s1 [Example 68],0.027
5,Cn1nccc1-c1nc2n(c1-c1ccc(C3(N)CCC3)cc1)-c1cccnc1Nc1ccccc1-2 [Example 70],0.343
6,NC1(c2ccc(-c3c(-c4cccs4)nc4n3-c3cccnc3Nc3ccccc3-4)cc2)CCC1 [Example 83],0.073
7,COc1ccc(-c2nc3n(c2-c2ccc(C4(N)CCC4)c(F)c2)-c2cccnc2Nc2ccccc2-3)cc1 [Example 127],0.083
8,NC1(c2ccc(-c3c(-c4ccc(F)cc4)nc4n3-c3cccnc3Nc3ccccc3-4)cc2)CCC1 [Example 134],0.053
9,NC1(c2ccc(-c3c(-c4ccc(F)cc4)nc4n3-c3cccnc3Nc3ccccc3-4)cc2F)CCC1 [Example 135],0.119
10,NC1(c2ccc(-c3c(-c4ccccc4F)nc4n3-c3cccnc3Nc3ccccc3-4)cc2)CCC1 [Example 136],0.084
11,NC1(c2ccc(-c3c(-c4ccccc4F)nc4n3-c3cccnc3Nc3ccccc3-4)cc2F)CCC1 [Example 137],0.168
12,NC1(c2ccc(-c3c(-c4ccc(-c5ccccc5)cc4)nc4n3-c3cccnc3Nc3ccccc3-4)cc2)CCC1 [Example 138],0.053
13,NC1(c2ccc(-c3c(-c4cccc(F)c4)nc4n3-c3cccnc3Nc3ccccc3-4)cc2)CCC1 [Example 139],0.074
14,NC1(c2ccc(-c3c(-c4cccc(F)c4)nc4n3-c3cccnc3Nc3ccccc3-4)cc2F)CCC1 [Example 140],0.295
15,Cc1ccccc1-c1nc2n(c1-c1ccc(C3(N)CCC3)cc1)-c1cccnc1Nc1ccccc1-2 [Example 141],0.451
16,Cc1ccccc1-c1nc2n(c1-c1ccc(C3(N)CCC3)c(F)c1)-c1cccnc1Nc1ccccc1-2 [Example 142],0.485
17,NCc1ccc(-c2c(-c3ccccc3)nc3n2-c2cccnc2Nc2ccccc2-3)cc1 [Example 143],0.122
18,NC1(c2ccc(-c3nc4n(c3-c3ccccc3)-c3cccnc3Nc3ccccc3-4)cc2)CCC1 [Example 144],0.184
19,NC1(c2ccc(-c3c(CC(=O)Nc4ccccc4)nc4n3-c3cccnc3Nc3ccccc3-4)cc2)CCC1 [Example 145],> 1
20,Cc1cccc(NC(=O)Cc2nc3n(c2-c2ccc(C4(N)CCC4)cc2)-c2cccnc2Nc2ccccc2-3)n1 [Example 146],> 1
21,C[C@H](N)c1ccc(-c2c(-c3ccccc3)nc3n2-c2cccnc2Nc2ccccc2-3)cc1 [Example 147],0.046
22,C[C@@H](N)c1ccc(-c2c(-c3ccccc3)nc3n2-c2cccnc2Nc2ccccc2-3)cc1 [Example 148],0.066
23,NCc1ccc(-c2nc3n(c2-c2ccc(C4(N)CCC4)cc2)-c2cccnc2Nc2ccccc2-3)cc1 [Example 149],0.018
24,NC1(c2ccc(-c3c(-c4nccs4)nc4n3-c3cccnc3Nc3ccccc3-4)cc2)CCC1 [Example 150],0.003
25,NC1(c2ccc(-c3c(-c4ncco4)nc4n3-c3cccnc3Nc3ccccc3-4)cc2)CCC1 [Example 151],0.004

# Source: patent US8569331B2 (ArQule, Inc., priority 2010, dated 2013)
